The source made the active and inactive calls. The calls are words filed in the database; no cut-off is given here.
Legend:
[1] = Prodrug activation in human A549 cells assessed as increase in GSH-mediated PpIX production at 100 to 300 uM incubated for 4 hrs by fluorescence based assay; assay type: cell-based; settings: a549, 4 h
[2] = test system: A-375; experiment: Photosensitization activity against human A375 cells assessed as cell viability at 100 uM incubated for 4 hrs followed by LED light array irradiation followed by further incubation for 24 hrs by MTT assay; assay type: functional; settings: A-375, light or radiation study, read-out: Activity
[3] = Prodrug activation in human HCT116 cells assessed as increase in GSH-mediated PpIX production at 100 to 300 uM incubated for 4 hrs by fluorescence based assay; assay type: cell-based; settings: hct-116, 4 h
[4] = test system: HeLa; experiment: Photosensitization activity against human HeLa cells assessed as reduction in cell viability incubated for 4 hrs followed by LED light array irradiation followed by further incubation for 24 hrs by MTT assay; assay type: functional, cell-based; settings: light or radiation study
[5] = Prodrug activation in human HeLa cells assessed as increase in GSH-mediated PpIX production at 300 uM incubated for 4 hrs by fluorescence based assay; assay type: cell-based
[6] = test system: HeLa; experiment: Photosensitization activity against human HeLa cells assessed as cell viability at 100 uM incubated for 4 hrs followed by LED light array irradiation followed by further incubation for 24 hrs by MTT assay; assay type: functional
[7] = test system: A549; experiment: Photosensitization activity against human A549 cells assessed as cell viability at 100 uM incubated for 4 hrs followed by LED light array irradiation followed by further incubation for 24 hrs by MTT assay; assay type: functional; settings: A549, light or radiation study, read-out: Activity
[8] = n-octanol/water partition coefficient, log P of the compound at 1M incubated for 0.5 hrs by HPLC analysis; assay type: physicochemical
[9] = Prodrug activation in human A375 cells assessed as increase in GSH-mediated PpIX production at 100 to 300 uM incubated for 4 hrs by fluorescence based assay; assay type: cell-based; settings: a-375, 4 h
[10] = Chemical stability of the compound in buffer at 1M at pH 7.4 by HPLC analysis; assay type: physicochemical
[11] = test system: HeLa; experiment: Cytotoxicity against human HeLa cells assessed as cell viability at 10 to 1000 uM incubated for 4 hrs measured under dark conditions by MTT assay; assay type: cell-based
[12] = Chemical stability of the compound in buffer at 1M at pH 9 by HPLC analysis; assay type: physicochemical
[13] = Chemical stability of the compound in buffer at 1M at pH 4 by HPLC analysis; assay type: physicochemical
[14] = Prodrug activation in human HeLa cells assessed as increase in GSH-mediated PpIX production at 100 uM incubated for 4 hrs by fluorescence imaging analysis; assay type: cell-based
[15] = test system: HCT-116; experiment: Photosensitization activity against human HCT116 cells assessed as cell viability at 100 uM incubated for 4 hrs followed by LED light array irradiation followed by further incubation for 24 hrs by MTT assay; assay type: functional; settings: HCT-116, light or radiation study, read-out: Activity
[16] = Prodrug activation in human HeLa cells assessed as increase in GSH-mediated PpIX production at 10 to 300 uM incubated for 4 hrs by fluorescence based assay; assay type: cell-based
[17] = Prodrug activation in human HeLa cells assessed as increase in GSH-mediated PpIX production at 1000 uM incubated for 4 hrs by fluorescence based assay; assay type: cell-based
[18] = Prodrug activation in human HeLa cells assessed as increase in GSH-mediated PpIX production at 100 uM incubated for 4 hrs pretreated for 1 hr with 1 mM intracellular GSH depletor, DEM by fluorescence imaging analysis; assay type: cell-based
[19] = test system: A549; experiment: Cytotoxicity against human A549 cells assessed as reduction in cell viability at 500 to 1000 uM incubated for 4 hrs measured under dark conditions by MTT assay; assay type: cell-based; settings: a549, 4 h
[20] = Prodrug activation in human A375 cells assessed as increase in GSH-mediated PpIX production at 100 uM incubated for 4 hrs by fluorescence based assay relative to 5-ALA; assay type: cell-based; settings: a-375, 4 h
[21] = Prodrug activation in human A375 cells assessed as increase in GSH-mediated PpIX production at 100 uM incubated for 4 hrs by fluorescence based assay relative to 5-ALA-OMe; assay type: cell-based; settings: a-375, 4 h
[22] = Prodrug activation in human HeLa cells assessed as increase in GSH-mediated PpIX production at 100 uM incubated for 4 hrs by fluorescence based assay relative to 5-ALA-OMe; assay type: cell-based
[23] = test system: HeLa; experiment: Potency index, ratio of 5-ALA IC50 to compound IC50 for photosensitization activity against human HeLa cells by MTT assay; assay type: functional
[24] = test system: HeLa; experiment: Cytotoxicity against human HeLa cells assessed as reduction in cell viability at 300 to 1000 uM incubated for 4 hrs measured under dark conditions by MTT assay; assay type: cell-based
[25] = test system: HCT-116; experiment: Cytotoxicity against human HCT116 cells assessed as reduction in cell viability at 500 to 1000 uM incubated for 4 hrs measured under dark conditions by MTT assay; assay type: cell-based; settings: hct-116, 4 h
[26] = test system: A-375; experiment: Cytotoxicity against human A375 cells assessed as reduction in cell viability at 500 to 1000 uM incubated for 4 hrs measured under dark conditions by MTT assay; assay type: cell-based; settings: a-375, 4 h
[27] = Prodrug activation in human A549 cells assessed as increase in GSH-mediated PpIX production at 500 to 1000 uM incubated for 4 hrs by fluorescence based assay; assay type: cell-based; settings: a549, 4 h
[28] = test system: HeLa; experiment: Potency index, ratio of 5-ALA-OMe IC50 to compound IC50 for photosensitization activity against human HeLa cells by MTT assay; assay type: functional
[29] = Prodrug activation in human HCT116 cells assessed as increase in GSH-mediated PpIX production at 100 uM incubated for 4 hrs by fluorescence based assay relative to 5-ALA-OMe; assay type: cell-based; settings: hct-116, 4 h
[30] = Prodrug activation in PBS buffer assessed as GSH-mediated cleaved product C-SA formation at 0.5 mM incubated for 1 hr measured at 37 degC and pH 7.4 in presence of 10 mM GSH by ESI-MS spectrometry; settings: pH 7.4, 1 h, 500 µM
[31] = Prodrug activation in human HCT116 cells assessed as increase in GSH-mediated PpIX production at 500 to 1000 uM incubated for 4 hrs by fluorescence based assay; assay type: cell-based; settings: hct-116, 4 h
[32] = Prodrug activation in human A549 cells assessed as increase in GSH-mediated PpIX production at 100 uM incubated for 4 hrs by fluorescence based assay relative to 5-ALA; assay type: cell-based; settings: a549, 4 h
[33] = Prodrug activation in human HCT116 cells assessed as increase in GSH-mediated PpIX production at 100 uM incubated for 4 hrs by fluorescence based assay relative to 5-ALA; assay type: cell-based; settings: hct-116, 4 h
[34] = Chemical stability of the compound in buffer at 1 M at pH 4 to 9 measured after 24 hrs by HPLC analysis; assay type: physicochemical; settings: pH 4, 24 h
[35] = test system: HeLa; experiment: Cytotoxicity against human HeLa cells assessed as reduction in cell viability at 10 to 300 uM incubated for 4 hrs measured under dark conditions by MTT assay; assay type: cell-based
[36] = Prodrug activation in human HeLa cells assessed as increase in GSH-mediated PpIX production at 100 uM incubated for 4 hrs by fluorescence based assay relative to 5-ALA; assay type: cell-based
[37] = Prodrug activation in human A549 cells assessed as increase in GSH-mediated PpIX production at 100 uM incubated for 4 hrs by fluorescence based assay relative to 5-ALA-OMe; assay type: cell-based; settings: a549, 4 h
[38] = Prodrug activation in human HeLa cells assessed as increase in GSH-mediated PpIX production at 300 to 1000 uM incubated for 4 hrs by fluorescence based assay; assay type: cell-based
[39] = Prodrug activation in human A375 cells assessed as increase in GSH-mediated PpIX production at 500 to 1000 uM incubated for 4 hrs by fluorescence based assay; assay type: cell-based; settings: a-375, 4 h
[40] = Prodrug activation in human HeLa cells assessed as GSH-mediated PpIX production at 10 to 1000 uM incubated for 4 hrs by fluorescence based assay; assay type: cell-based
[41] = test system: HCT-116; experiment: Cytotoxicity against human HCT116 cells assessed as reduction in cell viability incubated for 4 hrs followed by LED light array irradiation followed by further incubation for 24 hrs by MTT assay; assay type: functional, cell-based
[42] = test system: A-375; experiment: Cytotoxicity against human A375 cells assessed as reduction in cell viability incubated for 4 hrs followed by LED light array irradiation followed by further incubation for 24 hrs by MTT assay; assay type: functional, cell-based
[43] = test system: HeLa; experiment: Cytotoxicity against human HeLa cells assessed as cell viability at 10 to 1000 uM incubated for 4 hrs followed by LED light array irradiation followed by further incubation for 24 hrs by MTT assay; assay type: functional, cell-based
[44] = test system: A549; experiment: Cytotoxicity against human A549 cells assessed as reduction in cell viability incubated for 4 hrs followed by LED light array irradiation followed by further incubation for 24 hrs by MTT assay; assay type: functional, cell-based

In the case of `NCC(=O)CCC(=O)O` [AMINOLEVULINIC ACID], the Drug metabolism [1] is reported as “Metabolite_Detected”, the viability at 100 µM [2] is reported as 60% and the Drug metabolism [3] is reported as “Metabolite_Detected”. The IC50 [4] was 230 µM, the Drug metabolism [5] was “Metabolite_Detected” and the Activity [6] was “inactive”. The viability at 100 µM [7] was > 80%, the logP at 0.5 h [8] was -1.52 and the Drug metabolism [9] was “Metabolite_Detected”. The Stability [10] was “Unstable”, the Activity [11] was “Non-Toxic” and the Stability [12] was “Unstable”. For the same molecule, the Stability [13] was “Stable”, the Drug metabolism [14] was “Metabolite_Notdetected” and the viability at 100 µM [15] was > 80%. The Drug metabolism [16] was “Metabolite_Detected”.
In the case of `COC(=O)CCC(=O)CN` [METHYL AMINOLEVULINATE], the Drug metabolism [1] is reported as “Metabolite_Detected”, the viability at 100 µM [2] is reported as > 80% and the Drug metabolism [3] is reported as “Metabolite_Detected”. For the same molecule, the IC50 [4] was 763 µM, the Activity [6] was “inactive” and the viability at 100 µM [7] was > 80%. For the same molecule, the logP at 0.5 h [8] was -0.94, the Drug metabolism [17] was “Metabolite_Detected” and the Drug metabolism [9] was “Metabolite_Detected”. The Stability [10] was “Unstable”, the Activity [11] was “Non-Toxic” and the Stability [12] was “Unstable”. For the same molecule, the Stability [13] was “Stable”, the Drug metabolism [14] was “Metabolite_Notdetected” and the viability at 100 µM [15] was > 80%. For the same molecule, the Drug metabolism [16] was “Metabolite_Detected”.
For `COC(=O)CCC(=O)CNC(=O)OCCSSCCOC(=O)NCC(=O)CCC(=O)OC`, the Drug metabolism [1] was “Metabolite_Detected”, the Drug metabolism [18] was “Metabolite_Detected” and the Activity [19] was “Toxic”. The viability at 100 µM [2] was 14%, the fold change (FC) [20] was 3 to 40 and the “fold change (FC)” value [21] was 43. For the same molecule, the “fold change (FC)” value [22] was 70, the “Ratio IC50” value [23] was 4 and the Drug metabolism [3] was “Metabolite_Detected”. For the same molecule, the IC50 [4] was 62 µM, the Activity [24] was “Toxic” and the viability at 100 µM ([6]; light or radiation study, read-out: Activity) was 30%. The Activity [25] was “Toxic”, the Activity [26] was “Toxic” and the viability at 100 µM [7] was 16%. For the same molecule, the logP at 0.5 h [8] was 0.84, the Drug metabolism [27] was “Metabolite_Detected” and the “Ratio IC50” value [28] was 12. The “fold change (FC)” value [29] was 28, the Drug metabolism [30] was “Metabolite_Detected” and the Drug metabolism [31] was “Metabolite_Detected”. For the same molecule, the Drug metabolism [9] was “Metabolite_Detected”, the fold change (FC) [32] was 3 to 40 and the Stability [10] was “Stable”. For the same molecule, the Stability [12] was “Stable”, the fold change (FC) [33] was 3 to 40 and the Stability [34] was “Stable”. For the same molecule, the Activity [35] was “Toxic”, the Stability [13] was “Stable” and the “fold change (FC)” value [36] was 20. For the same molecule, the Drug metabolism [14] was “Metabolite_Detected”, the viability at 100 µM [15] was 13% and the “fold change (FC)” value [37] was 84. For the same molecule, the Drug metabolism [38] was “Metabolite_Detected”, the Drug metabolism [16] was “Metabolite_Detected” and the Drug metabolism [39] was “Metabolite_Detected”.
In the case of `COC(=O)CCC(=O)CNC(=O)OCCCCCCOC(=O)NCC(=O)CCC(=O)OC`, the Drug metabolism [40] is reported as “Metabolite_Notdetected”, the inhibition [41] is reported as “inactive” and the inhibition [42] is reported as “inactive”. The Activity [11] was “Non-Toxic”, the inhibition [43] was “inactive” and the Drug metabolism [14] was “Metabolite_Notdetected”. The inhibition [44] was “inactive”.

Reference: ChEMBL document CHEMBL4359869, “A new GSH-responsive prodrug of 5-aminolevulinic acid for photodiagnosis and photodynamic therapy of tumors” (Eur J Med Chem, 2019)
